Experimental data: patent publication US20110039721A1, “METHOD FOR PREDICTION ABOUT CARCINOGENICITY OF SUBSTANCE IN RODENT” (Chemicals Evaluation and Research Institute, priority 2007, published 2011)

What was measured:
[1] = tested on: mRNA expressed from the genes (A) to (D) in rat liver; assay: Behavior of genes (mRNA expression level, oligo-DNA microarray) in rat liver after 28-day oral administration; type: in vivo; settings: rat liver, oral once daily 28 days; for Behavior of gene caused by administration of chemical substance, Gene No. 4846 / Behavior of gene caused by administration of chemical substance, Gene No. 4218 / Behavior of gene caused by administration of chemical substance, Gene No. 2026 / Behavior of gene caused by administration of chemical substance, Gene No. 6182 / Behavior of gene caused by administration of chemical substance, Gene No. 5600: (A); for Behavior of gene caused by administration of chemical substance, Gene No. 4846: Unigene Rn.144554, defined direction +; for Behavior of gene caused by administration of chemical substance, Gene No. 4218: Unigene Rn.167075, defined direction +, significant = 1.5 times or more or 1/1.5 or less of control; for Behavior of gene caused by administration of chemical substance, Gene No. 2026: Unigene Rn.167075, defined direction −; for Behavior of gene caused by administration of chemical substance, Gene No. 6182: Unigene Rn.5834, defined direction +; for Behavior of gene caused by administration of chemical substance, Gene No. 5600: Unigene Rn.9836, defined direction +; for Behavior of gene caused by administration of chemical substance, Gene No. 1494 / Behavior of gene caused by administration of chemical substance, Gene No. 2045 / Behavior of gene caused by administration of chemical substance, Gene No. 2203: (B); for Behavior of gene caused by administration of chemical substance, Gene No. 1494: Unigene Rn.1430, defined direction −; for Behavior of gene caused by administration of chemical substance, Gene No. 2045: Unigene Rn.19329, defined direction +; for Behavior of gene caused by administration of chemical substance, Gene No. 2203: Unigene Rn.21240, defined direction +; for Behavior of gene caused by administration of chemical substance, Gene No. 533 / Behavior of gene caused by administration of chemical substance, Gene No. 725 / Behavior of gene caused by administration of chemical substance, Gene No. 1163 / Behavior of gene caused by administration of chemical substance, Gene No. 4973 / Behavior of gene caused by administration of chemical substance, Gene No. 4095 / Behavior of gene caused by administration of chemical substance, Gene No. 1334 / Behavior of gene caused by administration of chemical substance, Gene No. 6620 / Behavior of gene caused by administration of chemical substance, Gene No. 6303 / Behavior of gene caused by administration of chemical substance, Gene No. 5878 / Behavior of gene caused by administration of chemical substance, Gene No. 1131 / Behavior of gene caused by administration of chemical substance, Gene No. 1562 / Behavior of gene caused by administration of chemical substance, Gene No. 1741 / Behavior of gene caused by administration of chemical substance, Gene No. 893 / Behavior of gene caused by administration of chemical substance, Gene No. 6026 / Behavior of gene caused by administration of chemical substance, Gene No. 154 / Behavior of gene caused by administration of chemical substance, Gene No. 1993 / Behavior of gene caused by administration of chemical substance, Gene No. 813 / Behavior of gene caused by administration of chemical substance, Gene No. 2494 / Behavior of gene caused by administration of chemical substance, Gene No. 2546 / Behavior of gene caused by administration of chemical substance, Gene No. 3776 / Behavior of gene caused by administration of chemical substance, Gene No. 3929 / Behavior of gene caused by administration of chemical substance, Gene No. 1119 / Behavior of gene caused by administration of chemical substance, Gene No. 6742 / Behavior of gene caused by administration of chemical substance, Gene No. 5634: (C); for Behavior of gene caused by administration of chemical substance, Gene No. 533: Unigene Rn.106184, defined direction +; for Behavior of gene caused by administration of chemical substance, Gene No. 725: Unigene Rn.108075, defined direction −; for Behavior of gene caused by administration of chemical substance, Gene No. 1163: Unigene Rn.11766, defined direction +; for Behavior of gene caused by administration of chemical substance, Gene No. 4973: Unigene Rn.118529, defined direction −; for Behavior of gene caused by administration of chemical substance, Gene No. 4095: Unigene Rn.119024, defined direction −; for Behavior of gene caused by administration of chemical substance, Gene No. 1334 / Behavior of gene caused by administration of chemical substance, Gene No. 6620: Unigene Rn.120914, defined direction +; for Behavior of gene caused by administration of chemical substance, Gene No. 6303: Unigene Rn.123063, defined direction −; for Behavior of gene caused by administration of chemical substance, Gene No. 5878: Unigene Rn.143213, defined direction −; for Behavior of gene caused by administration of chemical substance, Gene No. 1131: Unigene Rn.144946, defined direction −; for Behavior of gene caused by administration of chemical substance, Gene No. 1562: Unigene Rn.14744, defined direction −; for Behavior of gene caused by administration of chemical substance, Gene No. 1741: Unigene Rn.1647, defined direction −; for Behavior of gene caused by administration of chemical substance, Gene No. 893: Unigene Rn.164817, defined direction +; for Behavior of gene caused by administration of chemical substance, Gene No. 6026: Unigene Rn.167685, defined direction −; for Behavior of gene caused by administration of chemical substance, Gene No. 154: Unigene Rn.185941, defined direction −; for Behavior of gene caused by administration of chemical substance, Gene No. 1993: Unigene Rn.18728, defined direction −; for Behavior of gene caused by administration of chemical substance, Gene No. 813: Unigene Rn.201760, defined direction +; for Behavior of gene caused by administration of chemical substance, Gene No. 2494: Unigene Rn.23969, defined direction +; for Behavior of gene caused by administration of chemical substance, Gene No. 2546: Unigene Rn.24561, defined direction −; for Behavior of gene caused by administration of chemical substance, Gene No. 3776: Unigene Rn.43232, defined direction −; for Behavior of gene caused by administration of chemical substance, Gene No. 3929: Unigene Rn.4620, defined direction +; for Behavior of gene caused by administration of chemical substance, Gene No. 1119: Unigene Rn.9757, defined direction +; for Behavior of gene caused by administration of chemical substance, Gene No. 6742: Unigene Rn.9779, defined direction +; for Behavior of gene caused by administration of chemical substance, Gene No. 5634: Unigene Rn.9862, defined direction −; for Behavior of gene caused by administration of chemical substance, Gene No. 5726: (D), Unigene Rn.9939, defined direction −
In short: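 Rat liver RNA after 28 days of daily gavage dosing (male F344, 5 weeks old, four per group). A change reaching 1.5-fold, or 1/1.5, against solvent control scores as significant; opposite direction versus another carcinogen scores as not significant.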

liver = settings: in vivo; cited from earlier work
rodent = settings: in vivo; cited from earlier work

Row | SMILES | Behavior of gene caused by administration of chemical substance, Gene No. 4846 [1] | Behavior of gene caused by administration of chemical substance, Gene No. 4218 [1] | Behavior of gene caused by administration of chemical substance, Gene No. 2026 [1] | Behavior of gene caused by administration of chemical substance, Gene No. 6182 [1] | Behavior of gene caused by administration of chemical substance, Gene No. 5600 [1] | Behavior of gene caused by administration of chemical substance, Gene No. 1494 [1] | Behavior of gene caused by administration of chemical substance, Gene No. 2045 [1] | Behavior of gene caused by administration of chemical substance, Gene No. 2203 [1] | Behavior of gene caused by administration of chemical substance, Gene No. 533 [1] | Behavior of gene caused by administration of chemical substance, Gene No. 725 [1] | Behavior of gene caused by administration of chemical substance, Gene No. 1163 [1] | Behavior of gene caused by administration of chemical substance, Gene No. 4973 [1] | Behavior of gene caused by administration of chemical substance, Gene No. 4095 [1] | Behavior of gene caused by administration of chemical substance, Gene No. 1334 [1] | Behavior of gene caused by administration of chemical substance, Gene No. 6620 [1] | Behavior of gene caused by administration of chemical substance, Gene No. 6303 [1] | Behavior of gene caused by administration of chemical substance, Gene No. 5878 [1] | Behavior of gene caused by administration of chemical substance, Gene No. 1131 [1] | Behavior of gene caused by administration of chemical substance, Gene No. 1562 [1] | Behavior of gene caused by administration of chemical substance, Gene No. 1741 [1] | other results
1 | CN(C)N=O [TS041, N-Nitrosodimethylamine] | + | + | − | + | + | − | − | − | − | − | − | − | − | − | − | − | − | − | − | − | Behavior of gene caused by administration of chemical substance, Gene No. 893 [1]: −; Behavior of gene caused by administration of chemical substance, Gene No. 6026 [1]: −; Behavior of gene caused by administration of chemical substance, Gene No. 154 [1]: −; Behavior of gene caused by administration of chemical substance, Gene No. 1993 [1]: −; Behavior of gene caused by administration of chemical substance, Gene No. 813 [1]: −; Behavior of gene caused by administration of chemical substance, Gene No. 2494 [1]: −; Behavior of gene caused by administration of chemical substance, Gene No. 2546 [1]: −; Behavior of gene caused by administration of chemical substance, Gene No. 3776 [1]: −; Behavior of gene caused by administration of chemical substance, Gene No. 3929 [1]: −; Behavior of gene caused by administration of chemical substance, Gene No. 1119 [1]: −; Behavior of gene caused by administration of chemical substance, Gene No. 6742 [1]: +; Behavior of gene caused by administration of chemical substance, Gene No. 5634 [1]: −; Behavior of gene caused by administration of chemical substance, Gene No. 5726 [1]: −; Liver carcinogenicity (liver): Cr+; Carcinogenicity (rodent): C+
2 | O=NN1CCCCC1 [TS042, N-Nitrosopiperidine] | + | + | + | + | + | + | − | − | + | − | − | − | − | − | − | + | − | + | + | − | Behavior of gene caused by administration of chemical substance, Gene No. 893 [1]: −; Behavior of gene caused by administration of chemical substance, Gene No. 6026 [1]: −; Behavior of gene caused by administration of chemical substance, Gene No. 154 [1]: −; Behavior of gene caused by administration of chemical substance, Gene No. 1993 [1]: +; Behavior of gene caused by administration of chemical substance, Gene No. 813 [1]: +; Behavior of gene caused by administration of chemical substance, Gene No. 2494 [1]: −; Behavior of gene caused by administration of chemical substance, Gene No. 2546 [1]: −; Behavior of gene caused by administration of chemical substance, Gene No. 3776 [1]: −; Behavior of gene caused by administration of chemical substance, Gene No. 3929 [1]: −; Behavior of gene caused by administration of chemical substance, Gene No. 1119 [1]: −; Behavior of gene caused by administration of chemical substance, Gene No. 6742 [1]: −; Behavior of gene caused by administration of chemical substance, Gene No. 5634 [1]: −; Behavior of gene caused by administration of chemical substance, Gene No. 5726 [1]: +; Liver carcinogenicity (liver): Cr+; Carcinogenicity (rodent): C+
3 | CC(=O)Nc1ccc2c(c1)Cc1ccccc1-2 [TS043, 2-Acetylaminofluorene] | + | + | + | + | + | − | − | − | − | + | + | + | + | − | − | + | − | − | + | − | Behavior of gene caused by administration of chemical substance, Gene No. 893 [1]: +; Behavior of gene caused by administration of chemical substance, Gene No. 6026 [1]: −; Behavior of gene caused by administration of chemical substance, Gene No. 154 [1]: −; Behavior of gene caused by administration of chemical substance, Gene No. 1993 [1]: +; Behavior of gene caused by administration of chemical substance, Gene No. 813 [1]: −; Behavior of gene caused by administration of chemical substance, Gene No. 2494 [1]: −; Behavior of gene caused by administration of chemical substance, Gene No. 2546 [1]: −; Behavior of gene caused by administration of chemical substance, Gene No. 3776 [1]: −; Behavior of gene caused by administration of chemical substance, Gene No. 3929 [1]: −; Behavior of gene caused by administration of chemical substance, Gene No. 1119 [1]: −; Behavior of gene caused by administration of chemical substance, Gene No. 6742 [1]: −; Behavior of gene caused by administration of chemical substance, Gene No. 5634 [1]: −; Behavior of gene caused by administration of chemical substance, Gene No. 5726 [1]: −; Liver carcinogenicity (liver): Cr+; Carcinogenicity (rodent): C+
